Here are results for eleven compounds from patent EP0433759A1, “4-Substituted alkyl carbapenem antibiotics” (Bristol-Myers Squibb Company, priority 1989, dated 1991).

Series [1] can be described thus: Solubility in water, observation on the lyophilized product. In kind it is physicochemical. As to conditions: lyophilized material. As to the method:
A solution of (4R,5S,6S)-4-(4"-aminobutyl)-6-[(1'R)-1'-hydroxyethyl]-3-[(pyridin-4-yl)methylthio]-7-oxo-1-azabicyclo[3.2.0]hept-2-ene-2-carboxylic acid (0.134 g, 0.34 mmol) in 15 mL of cold water (pH 6.4), was adjusted to pH 8.0 with 1 M NaOH. Then 0.170 g (1.36 mmol) of aminoiminomethanesulfonic acid [K. Kim et al., Tet. Lett., 29, 3183 (1988)] was added in small portions over 5 min while maintaining the pH at 8 with 1 M NaOH. Three more portions of aminoiminomethanesulfonic acid (3 x 0.050 g) were added at 30 min intervals and the resulting mixture (some insoluble material) was stirred for a total of 3 h at 0-5 C. The pH was maintained throughout at 8 with 1 M NaOH. Then 15 mL of 0.2M pH 6.0 phosphate buffer was added and the resulting homogeneous solution was chromatographed on reverse phase silica gel (µBondapak C18, 2.5 x 14 cm). Elution with a gradient of acetonitrile (0-10%) in water gave 0.103 g (69%) of the title compound as a white amorphous powder after freeze drying.

In another series the test system is Escherichia coli, A15119. Briefly: In vitro antibacterial activity (MIC), serial 2-fold dilution. In kind it is cell-based. As to conditions: Escherichia coli A15119; Mueller-Hinton; 37°C, 17 h; read-out: Antibacterial Activity MIC E. coli. The protocol:
(§1) In vitro antibacterial activity was determined by serial 2-fold dilution of the compound in Mueller-Hinton agar and inoculation of the agar surface or broth with an appropriately diluted 18-24 h broth culture.

Series [2] has as its system Pseudomonas aeruginosa, A9843. Described as above. Format: cell-based. As to conditions: Pseudomonas aeruginosa A9843; Mueller-Hinton; 37°C, 17 h; read-out: Antibacterial Activity MIC P. aer. The protocol: as §1
Series [3] concerns Streptococcus pneumoniae, A9585. The description is as above. Format: cell-based. As to conditions: Streptococcus pneumoniae A9585; Mueller-Hinton; 37°C, 17 h; read-out: Antibacterial Activity MIC S. pn. As to the method:
as §1

The nature of series [4]: Chemical stability in aqueous solution (half-life). In kind it is physicochemical. As to conditions: 37°C, 10^-4 M, pH 7.4, aqueous solution; read-out: Half-life (T 1/2) (converted). The protocol: These values were determined by the method of Woodward et al, J. Am. Chem. Soc., 102, 2042 (1980)

SMILES strings stand for the structures. ≈ marks a conversion by molar mass, not a printed value. Counter-ions that a name gives are not always drawn.

`C[C@@H](O)[C@H]1C(=O)N2C(C(=O)O)=C(SCc3ccncc3)[C@H](CCCCNC(=N)N)[C@H]12` [Example 78, (4R,5S,6S)-4-(4"-Guanidinobutyl]-6-[(1'R)-1'-hydroxyethyl]-3-[(pyridin-4-yl)methylthio]-7-oxo-1-azabicyclo-[3.2.0]hept-2-ene-2-carboxylic acid]: in series [1], the Solubility in water result is “only slightly soluble in water”.
For `C[C@@H](O)[C@H]1C(=O)N2C(C(=O)O)=C(SCCN3CCCC3)[C@H](CCCN)[C@H]12` [Example 120, (4R,5S,6S)-4-(3"-Aminopropyl)-6-[(1'R)-1'-hydroxyethyl]-3-[2-(1-pyrrolidinyl)ethylthio]-7-oxo-1-azabicyclo-[3.2.0]-hept-2-ene-2-carboxylic acid, acetic acid salt], the minimal inhibitory concentration (MIC) in the series with Escherichia coli, A15119 is 0.13 µg/mL; in series [2], 0.25 µg/mL; in series [3], 0.03 µg/mL. Moreover, the half-life at 100 µM in series [4] was 23 h.
For the compound `C[C@@H](O)[C@H]1C(=O)N2C(C(=O)O)=C(SCCC#N)[C@H](CCCCCN)[C@H]12` [Example 121], the MIC was determined as 0.004 µg/mL (≈ 0.0109 µM) in the series with Escherichia coli, A15119; 1 µg/mL (≈ 2.72 µM) in series [2]; 0.13 µg/mL (≈ 0.354 µM) in series [3]. The half-life at 100 µM in series [4] is 136 h.
The matching figures for `C[C@@H](O)[C@H]1C(=O)N2C(C(=O)O)=C(SCCC#N)[C@H](CCN(C)CCC#N)[C@H]12` [Example 124, (4R,5S,6S)-3-[(2-Cyanoethyl)thio]-4-[2"-[N,N-(2-cyanoethyl)methylamino]ethy!]-6-[(1'R)-1'-hydroxyethyl]-7-oxo-1-azabicyclo[3.2.0]hept-2-ene-2-carboxylic acid]: 0.03 µg/mL (≈ 0.0764 µM), 2 µg/mL (≈ 5.1 µM), 0.016 µg/mL (≈ 0.0408 µM) and 21 h.
The matching figures for `C[C@@H](O)[C@H]1C(=O)N2C(C(=O)O)=C(SCCC#N)[C@H](CCN3CCN(C)CC3)[C@H]12` [Example 126, (4R,5S,6S)-3-[(2-Cyanoethyl)thio]-6-[(1'R)-1'-hydroxyethyl]-4-[2"(4-methylpiperazine-1-yl)ethyl]-7-oxo-1-azabicyclo[3.2.0]hept-2-ene-2-carboxylic acid]: 0.008 µg/mL (≈ 0.0196 µM), 2 µg/mL (≈ 4.9 µM), 0.016 µg/mL (≈ 0.0392 µM) and 47 h.
The like results for `C[C@@H](O)[C@H]1C(=O)N2C(C(=O)O)=C(SCCN3CCCC3)[C@H](CCCNC(=N)N)[C@H]12` [Example 127, (4R,5S,6S)-4-(3"-Guanidinopropyl)-6-[(1'R)-1'-hydroxyethyl]3-([2-(1-pyrrolidinyl)ethyllthio)-7-oxo-1-azabicyclo[3.2.0]-hept-2-ene-2-carboxylic acid, acetic acid salt] were, in that order, 0.13 µg/mL, 1 µg/mL, 0.06 µg/mL and 31 h.
Regarding `C[C@@H](O)[C@H]1C(=O)N2C(C(=O)O)=C(SCC(=N)N(C)C)[C@H](CCCN)[C@H]12` [Example 130, (4R,5S,6S)-4-(3"-Aminopropyl)-3-[(N,N-dimethylamidinomethyl]thio]-6-[(1'R)-1'-hyroxyethyl]-7-oxo-1-azabicyclo[3.2.0]hept-2-ene-2-carboxylic acid, acetic acid salt], the MIC with Escherichia coli, A15119 worked out at 0.13 µg/mL; in series [2] it was 0.06 µg/mL; in series [3], 0.13 µg/mL. In addition, the half-life at 100 µM in series [4] is 16 h.
With `C[C@@H](O)[C@H]1C(=O)N2C(C(=O)O)=C(SCCC#N)[C@H](CCSCCN)[C@H]12` [Example 131, (4R,5S,6S)-4-(2"-(2-Aminoethylthio)ethyl]-3-[(2-cyanoethylthio]-6-[(1'R)-1'-hydroxyethy)]-7-oxo-1-azabicyclo-[3.2.0]-hept-2-ene-2-carboxylic acid], the MIC with Escherichia coli, A15119 turned out to be 0.13 µg/mL (≈ 0.337 µM); in series [2] it was 2 µg/mL (≈ 5.19 µM); in series [3] it was 0.25 µg/mL (≈ 0.648 µM). In series [4], the half-life at 100 µM was 46 h.
As to `C[C@@H](O)[C@H]1C(=O)N2C(C(=O)O)=C(SCCNC(=N)N)[C@H](CCNC(=N)N)[C@H]12` [Example 135, (4R,5S,6S)-4-(2"-Guanidinoethyl)-3-[(2-guanidinoethyl)-thio]-6-[(1'R)-1'-hydroxyethyl]-7-oxo-1-azabicyclo-[3.2.0]hept-2-ene-2-carboxylic acid, acetic acid salt], the MIC was determined as 0.015 µg/mL in the series with Escherichia coli, A15119; 0.06 µg/mL in series [2]; 0.03 µg/mL in series [3]. The half-life at 100 µM in series [4] is 37 h.
In the case of `C[C@@H](O)[C@H]1C(=O)N2C(C(=O)[O-])=C(SCCC#N)[C@H](CC[n+]3ccccc3)[C@H]12` [Example 136, (4R,5S,6S)-3-[(2-Cyanoethyl)thio]-6-[(1'R)-1'-hydroxyethyl]-4-[2"-(1-pyridinium)ethyl]7-oxo-1-azabicyclo-[3.2.0]hept-2-ene-2-carboxylate], the MIC is 0.007 µg/mL (≈ 0.0181 µM) in the series with Escherichia coli, A15119; 4 µg/mL (≈ 10.3 µM) in series [2]; 0.015 µg/mL (≈ 0.0387 µM) in series [3]. Also, in series [4], the half-life at 100 µM was 17 h.
The like results for `CNCCC[C@H]1C(SCCC#N)=C(C(=O)O)N2C(=O)[C@H]([C@@H](C)O)[C@@H]12` [Example 154, (4R,5S,6S)-3-[(2-Cyanoethyl]thio]-6-[(1'R]-1'-hydroxyethyl]-4-(3"-N-methylaminopropyl)-7-oxo-1-azabicyclo[3.2.0]hept-2-ene-2-carboxylic acid] were, in that order, 0.25 µg/mL (≈ 0.707 µM), 1 µg/mL (≈ 2.83 µM), 0.5 µg/mL (≈ 1.41 µM) and 79 h.
